These results are taken from US11674967B2, “Method of identifying potential inhibitors of APO TNFα trimers” (UCB BIOPHARMA SRL, priority 2015, dated 2023).

SMILES strings stand for the structures.

Test [1] has as its target T1, TNFα (Homo sapiens, UniProt P01375). Put plainly: Mass spectrometric analysis of compound binding to TNFα (soft ionisation). The method, then: Mass spectrometry was typically performed using a Waters LCT-premier Time-of-Flight mass spectrometer or a Waters SynaptG2 Q-TOF mass spectrometer. Samples were introduced using an Advion Triversa Nanomate nanoflow infusion device which replaces the conventional spectrometer source, sample injection was via an “A” series chip with […] nozzle size at a nominal flow rate of 100 nl/min. Further modifications to the Waters LCT-premier Time-of-Flight mass spectrometer include a customised source cooling device allowing precise control of the source temperature and a commercial pressure regulation device giving precise control over the vacuum conditions in the source region. Together these modifications help retain the TNFα trimer in a native, folded conformation and facilitate the detection of complexes formed with test compounds of weak affinities.
Ions were generated using standard positive ion electrospray conditions resulting in multiple charging of TNFα.
Mass spectrometry is very sensitive to the buffer salts present in the protein sample. Typical buffer salts such as potassium or sodium phosphates have a severely detrimental affect on ionisation. Accordingly protein samples were pre-treated to remove these salts using a Zeba desalt spin column, the protein being exchanged into a mass spectrometry compatible buffer system, typically 50 mM Ammonium Acetate at pH 6.8.
Typically the test compounds were presented as 10 mM DMSO stock solutions such that when they are incubated with TNFα in solution the final DMSO concentration is 5%. […] This is evidenced by the changes in the number of charges acquired by the protein under the various conditions described.
Test compounds were prepared as 10 mM solutions in dimethylsulphoxide (DMSO). Therefore, it was necessary to establish the effect of DMSO on the native TNFα trimer in the absence of a test compound. […]
Incubation of a library of test compounds, including the compound of formula (3) with TNFα was monitored by mass spectrometry under soft ionization conditions. […]
Target sequence in this assay (P01375 77-233 limits assumed): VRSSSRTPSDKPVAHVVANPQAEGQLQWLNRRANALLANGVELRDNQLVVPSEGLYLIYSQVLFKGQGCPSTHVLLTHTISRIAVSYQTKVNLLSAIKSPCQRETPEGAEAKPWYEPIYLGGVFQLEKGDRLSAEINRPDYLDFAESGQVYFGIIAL

Test [2] addresses T1, TNFα. Nature of the test: LC-MS of size exclusion fractions of TNFα, TNF-R and compound. Particulars: either order of addition. In kind it is binding. Further details: purchased R&D Systems. How it is done:
Fractions from size exclusion chromatographic separation of mixtures of TNFα, TNF-R and the compound of formula (3) were analysed by liquid chromatography-mass spectrometry (LC-MS). Two samples were prepared for size exclusion chromatography.
Target sequence in this assay (P01375 77-233 limits assumed): as above
Target sequence in this assay (P19438 30-211 partner limits assumed): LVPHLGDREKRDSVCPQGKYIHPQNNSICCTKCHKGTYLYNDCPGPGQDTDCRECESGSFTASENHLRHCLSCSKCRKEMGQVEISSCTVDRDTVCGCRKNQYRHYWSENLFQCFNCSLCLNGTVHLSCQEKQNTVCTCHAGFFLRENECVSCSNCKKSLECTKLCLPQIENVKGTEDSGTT
In general terms: Size exclusion chromatography separates by hydrodynamic size, large species first.

In the case of `Cc1ccc(C)c(Cn2c(C(O)c3ccncc3)nc3ccccc32)c1` (stereo not shown) [Compound 3], the “effect on trimeric TNFα (charge state envelope)” value on TNFα [1] (5% v/v DMSO) is reported as “stabilization of the trimeric TNFα complex”. Besides, at TNFα [1] (soft ionization), the “binding to the monomeric form of TNFα” value is on record as “not observed to bind” and the stoichiometry of binding result is listed as “one molecule of the compound of formula (3) per TNFα trimer”. On TNFα [2], the “binding to TNFα in the presence of TNF-R” value is “binds to TNFα even in the presence of TNF-R”.
